# Test results from patent publication EP4803512A1, “COMPOUND CAPABLE OF INHIBITING CONNEXIN-ASSOCIATED KINASE 1, PREPARATION, AND USE THEREOF” (Xizang Haisco Pharmaceutical Co., Ltd., priority 2023, dated 2025).
# Tests used:
# PC12 cells = settings: cited from earlier work
# AAK1 = target: T1, AAK1 (Homo sapiens, UniProt Q2M2I8); assay: In vitro AAK1 enzyme activity assay (ADP-Glo); type: biochemical; settings: inhibitory activity against AAK1
# T1 construct: purchased Signalchem A01-11G-10
# Method: Compound stock solution (concentration: 10 mM, dissolved in DMSO) was diluted with DMSO to 0.2 mM and then diluted with DMSO in 5-fold gradient to obtain compound solutions with 10 concentrations. Subsequently, the compound solutions with different concentrations were diluted 50-fold in 1× kinase reaction buffer (containing 40 mM Tris, 20 mM MgCl2, 0.1% BSA and 0.5 mM DTT) for later use. AAK1 (Signalchem, Cat# A01-11G-10) was diluted with 1× kinase reaction buffer to 2-fold the final concentration (final concentrations: 30 nM and 28 nM). AAK1 was added to a 384-well white plate at 2 µL/well, and the compounds were then added at 1 µL/well. The plate was sealed with a plate-sealing film, centrifuged at 1000 rpm for 30 seconds and then placed at room temperature for 10 minutes. […] The RLU (Relative luminescence unit) signal values were read using a Biotek multimode microplate reader, and the percent inhibition was calculated according to the following formula: [1-(LUM compound-LUM positive control) / (LUM negative control-LUM positive control)] × 100. IC50 values were calculated using Graphpad 7.0 software using a four-parameter non-linear fit equation. […]
# hERG potassium channel = target: T2, hERG potassium channel (Homo sapiens, UniProt Q12809); assay: hERG potassium channel activity assay, manual whole-cell patch clamp; type: cell-based; settings: IC50, inhibition of hERG potassium channel current, CHO cells stably expressing hERG
# T2 construct: expressed in transfected cells
# T2 sequence (Q12809 whole entry): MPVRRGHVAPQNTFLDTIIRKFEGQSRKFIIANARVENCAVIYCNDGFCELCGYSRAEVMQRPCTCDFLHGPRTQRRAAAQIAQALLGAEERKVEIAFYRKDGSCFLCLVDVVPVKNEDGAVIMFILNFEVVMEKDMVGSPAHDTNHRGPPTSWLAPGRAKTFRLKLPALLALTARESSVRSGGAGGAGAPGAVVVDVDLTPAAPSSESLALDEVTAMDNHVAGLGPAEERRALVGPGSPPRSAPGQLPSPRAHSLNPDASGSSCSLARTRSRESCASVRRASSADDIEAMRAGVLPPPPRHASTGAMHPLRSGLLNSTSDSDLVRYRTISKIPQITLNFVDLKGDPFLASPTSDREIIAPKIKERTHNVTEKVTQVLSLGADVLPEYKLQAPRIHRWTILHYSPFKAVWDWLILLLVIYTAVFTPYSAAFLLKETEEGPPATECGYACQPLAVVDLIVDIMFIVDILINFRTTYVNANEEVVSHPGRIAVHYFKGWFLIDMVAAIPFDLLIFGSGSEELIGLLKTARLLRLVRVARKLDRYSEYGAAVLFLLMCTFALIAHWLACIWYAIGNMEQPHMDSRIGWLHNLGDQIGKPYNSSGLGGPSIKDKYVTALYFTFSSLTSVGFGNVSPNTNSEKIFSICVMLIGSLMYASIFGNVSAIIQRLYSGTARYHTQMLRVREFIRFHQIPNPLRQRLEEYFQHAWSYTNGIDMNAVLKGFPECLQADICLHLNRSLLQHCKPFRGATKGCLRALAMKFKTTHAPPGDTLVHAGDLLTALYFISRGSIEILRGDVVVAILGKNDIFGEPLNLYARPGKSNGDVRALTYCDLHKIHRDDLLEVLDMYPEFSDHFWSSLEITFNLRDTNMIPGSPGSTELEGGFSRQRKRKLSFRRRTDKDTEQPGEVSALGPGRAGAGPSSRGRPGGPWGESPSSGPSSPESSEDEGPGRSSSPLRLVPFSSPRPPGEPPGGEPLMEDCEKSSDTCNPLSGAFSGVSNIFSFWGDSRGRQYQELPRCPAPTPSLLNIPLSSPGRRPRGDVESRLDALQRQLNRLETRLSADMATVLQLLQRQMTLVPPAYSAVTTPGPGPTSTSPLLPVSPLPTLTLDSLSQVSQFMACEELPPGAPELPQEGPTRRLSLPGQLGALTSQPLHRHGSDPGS
# Description: 2.1 Experimental preparation: Experimental platform: manual electrophysiological patch-clamp system; Cell line: Chinese hamster ovary (CHO) cell line stably expressing hERG potassium channel.
# 2.2. Experimental method: In Chinese Hamster Ovary (CHO) cells stably expressing hERG potassium channel, the whole-cell patch-clamp technique was used to record hERG potassium channel current at room temperature. The glass microelectrodes were pulled from glass electrode blanks (BF150-86-10, Sutter) by a glass microelectrode puller. The tip resistance of the microelectrodes after being filled with intrapipette solution was about 2-5 MΩ. The glass microelectrodes were connected to the patch-clamp amplifier by inserting them into an amplifier probe. The clamping voltage and data recording were controlled and recorded by the pClamp 10 software through a computer, with a sampling frequency of 10 kHz and a filtering frequency of 2 kHz. After the whole cell records were obtained, the cells were clamped at -80 mV, and the step voltage that induced the hERG potassium current (I hERG) was depolarised from -80 mV to +20 mV for 2 s, then repolarised to -50 mV, and returned to -80 mV after 1 s. […]
# Compound IC50 was calculated using GraphPad Prism 5 software by fitting according to the following equation: Y = Bottom + (Top−Bottom)/(1+10^(∧)((LogIC50−X)×HillSlope)) [formula] […]
# [1] = Pharmacokinetic assay in mice; type: in vivo, ICR mice; settings: plasma
# Method: 3.1 Experimental animals: Male ICR mice, 20-25 g, 6 mice/compound, purchased from Chengdu Dossy Experimental Animals Co., Ltd.
# 3.2 Experimental design: on the day of the experiment, the ICR mice were randomly grouped according to their body weights. The animals were fasted with water available for 12-14 h one day before the administration, and were fed 4 h after the administration. Table 3 Administration information
# vehicle for intravenous administration: 5%DMA+5%HS-15+90%NS; vehicle for intragastric administration: 0.5% MC; before and after administration, 0.06 mL of blood was taken from the orbit under isoflurane anaesthesia and placed in an EDTAK2 centrifuge tube. The tube was centrifuged at 5000 rpm at 4°C for 10 min, and plasma was collected. The blood sampling time points for both the intravenous administration group and intragastric administration group were 0, 5 min, 15 min, 30 min, 1 h, 2 h, 4 h, 7 h and 24 h. Before analysis and detection, all samples were stored at -80°C, and the samples were quantitatively analysed by LC-MS/MS. Table 4 Pharmacokinetic parameters of test compounds in plasma of mice
# [2] = Liver microsomal stability assay, rat liver microsomal model; type: in vitro ADME; settings: rat liver microsomes, 1 µM, 37°C, NADPH
# Method: In this experiment, liver microsomes of five species, including human, monkey, dog, rat and mouse, were used as in vitro models to evaluate the metabolic stability of the test compound.
# At 37°C, 1 µM of the test compound was co-incubated with microsomal protein and coenzyme NADPH. At given time points of the reaction (5 min, 10 min, 20 min, 30 min, and 60 min), the reaction was terminated by adding ice-cold acetonitrile containing an internal standard. The LC-MS/MS method was used to measure the concentration of the test compound in the sample. T1/2 was calculated using the ln value of the percentage of drug remaining in the incubation system and the incubation time. In addition, the intrinsic clearance in liver microsomes CLint(mic) and the intrinsic clearance in liver CLint(Liver) were further calculated. Table 7 Results of test compounds in rat liver microsomal model
# [3] = mice; cited from earlier work
# [4] = mice; cited from earlier work; remark: listed apart in the source
# [5] = cited from earlier work
# [6] = cited from earlier work; remark: listed apart in the source
# [7] = Pharmacokinetic assay in rats; type: in vivo, SD rats; settings: rat, po, plasma, Intragastric administration (5 mg/kg)
# Method: 4.1 Experimental animals: Male SD rats, about 220 g, 6-8 weeks old, 6 rats/compound, purchased from Chengdu Dossy Experimental Animals Co., Ltd.
# 4.2 Experimental design: on the day of the experiment, 6 SD rats were randomly grouped according to their body weights. The animals were fasted with water available for 12-14 h one day before the administration, and were fed 4 h after the administration. Table 5 Administration information
# Before and after the administration, 0.1 ml of blood was taken from the orbit under isoflurane anaesthesia and placed in an EDTAK2 centrifuge tube. The tube was centrifuged at 5000 rpm at 4°C for 10 min, and plasma was collected. Blood sampling time points for the intravenous administration group: 0, 5 min, 15 min, 30 min, 1 h, 2 h, 4 h, 6 h, 8 h and 24 h; blood sampling time points for the intragastric administration group: 0, 5 min, 15 min, 30 min, 1 h, 2 h, 4 h, 6 h, 8 h and 24 h. Before analysis and detection, all samples were stored at -80°C.
# [8] = Intragastric administration (10 mg/kg), 10 mg/kg
# T1 sequence (Q2M2I8 27-365 limits assumed): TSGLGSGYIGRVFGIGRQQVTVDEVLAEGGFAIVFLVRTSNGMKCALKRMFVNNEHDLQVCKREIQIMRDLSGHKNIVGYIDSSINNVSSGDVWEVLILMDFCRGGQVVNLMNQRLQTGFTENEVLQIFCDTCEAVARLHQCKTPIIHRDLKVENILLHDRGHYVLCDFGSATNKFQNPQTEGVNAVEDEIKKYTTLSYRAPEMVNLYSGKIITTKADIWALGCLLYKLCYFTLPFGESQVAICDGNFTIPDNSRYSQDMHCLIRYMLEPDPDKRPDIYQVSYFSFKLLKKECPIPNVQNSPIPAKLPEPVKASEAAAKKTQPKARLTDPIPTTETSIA
smiles,measurement,setting,value
COC(=O)[C@@]1(O)C[C@H]2O[C@]1(C)n1c3ccccc3c3c4c(c5c6ccccc6n2c5c31)C(=O)NC4 [Compound K252a],ErbB4 accumulation in the plasma membrane or in close proximity to the plasma membrane,PC12 cells,increased
same,ErbB4 expression,PC12 cells,increased
same,neuregulin-1-induced neurite outgrowth,PC12 cells,potentiates
"CC(O)(CO)C[C@](C)(N)COc1ccc(-c2ccnc(C(F)F)c2)nc1C(F)F (single isomer, unassigned) [Compound 1-1]",IC50,AAK1,≤ 0.02 µM
same,IC50,hERG potassium channel,6.73 µM
same,AUC(0-t),[1]; [8],4400 ng·h/mL
same,T1/2,[1]; [8],4.82 h
same,Percentage of drug remaining after 60 min of incubation,[2],93.7%
COc1ncccc1-c1cnn2ccc(N3CCN(C(=O)OC(C)C)CC3)nc12 [LP-935509],pain responses in phase II of the formalin model,[3],significantly attenuate
same,mechanical allodynia induced by SNL,[4],significantly attenuate
same,pain responses in the mouse chronic constriction injury (CCI) model,[5],significantly attenuate
same,pain responses in the mouse streptozotocin-induced diabetic neuropathy model,[6],significantly attenuate
"CC(O)(CO)C[C@](C)(N)COc1ccc(-c2ccnc(C(F)F)c2)nc1C(F)F (single isomer, unassigned) [Compound 1-2]",IC50,AAK1,≤ 0.02 µM
same,IC50,hERG potassium channel,13.7 µM
same,clearance,"[1]; mouse, Intravenous administration (2.5 mg/kg)",57.8 mL/min/kg
same,Vd,"[1]; mouse, Intravenous administration (2.5 mg/kg), read-out: Vdss",10.5 L/kg
same,half-life,"[1]; mouse, iv, 2.5 mg/kg, Intravenous administration (2.5 mg/kg)",2.53 h
same,AUC(0-t),"[1]; mouse, iv, 2.5 mg/kg, Intravenous administration (2.5 mg/kg), read-out: AUC0-t",630 ng·h/mL
same,half-life,"[1]; mouse, po, 10 mg/kg, Intragastric administration (10 mg/kg)",3.09 h
same,AUC(0-t),"[1]; mouse, po, 10 mg/kg, Intragastric administration (10 mg/kg), read-out: AUC0-t",3520 ng·h/mL
same,AUC(0-t),[7],4050 ng·h/mL
same,half-life,[7],4.52 h
same,Percentage of drug remaining after 60 min of incubation,[2],> 99%
